Data: US12351574B2, “Selective ligands for modulation of GIRK channels” (Northeastern University, priority 2018, dated 2025)

Key:
GIRK1-S65A with GIRK2 = biological target: T1, GIRK1-S65A with GIRK2 (UniProt P48542+P48549, S65A); test: 5-ptaseOCRL current inhibition, GIRK1/2 channels containing GIRK1-S65A subunits; format: cell-based, human GIRK1, mouse GIRK2; conditions: 10 μM GAT1508
T1 construct: expressed in transfected cells; host or cells: HEK293 cells
T1 sequence (P48549 1-501 S65A): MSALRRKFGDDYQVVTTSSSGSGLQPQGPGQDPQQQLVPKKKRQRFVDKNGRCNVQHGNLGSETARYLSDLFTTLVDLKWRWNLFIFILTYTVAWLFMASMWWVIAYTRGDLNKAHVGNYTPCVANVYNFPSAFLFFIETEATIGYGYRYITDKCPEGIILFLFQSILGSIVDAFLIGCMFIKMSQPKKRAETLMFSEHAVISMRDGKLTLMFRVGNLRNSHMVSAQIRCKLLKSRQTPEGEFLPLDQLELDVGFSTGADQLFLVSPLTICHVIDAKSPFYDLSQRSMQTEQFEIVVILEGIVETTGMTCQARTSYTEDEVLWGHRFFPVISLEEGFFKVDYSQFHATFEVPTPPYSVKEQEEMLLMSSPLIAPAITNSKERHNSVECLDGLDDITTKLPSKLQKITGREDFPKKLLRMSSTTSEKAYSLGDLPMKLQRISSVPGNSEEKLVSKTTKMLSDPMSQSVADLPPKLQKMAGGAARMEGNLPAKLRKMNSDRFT
T1 sequence (P48542 1-425): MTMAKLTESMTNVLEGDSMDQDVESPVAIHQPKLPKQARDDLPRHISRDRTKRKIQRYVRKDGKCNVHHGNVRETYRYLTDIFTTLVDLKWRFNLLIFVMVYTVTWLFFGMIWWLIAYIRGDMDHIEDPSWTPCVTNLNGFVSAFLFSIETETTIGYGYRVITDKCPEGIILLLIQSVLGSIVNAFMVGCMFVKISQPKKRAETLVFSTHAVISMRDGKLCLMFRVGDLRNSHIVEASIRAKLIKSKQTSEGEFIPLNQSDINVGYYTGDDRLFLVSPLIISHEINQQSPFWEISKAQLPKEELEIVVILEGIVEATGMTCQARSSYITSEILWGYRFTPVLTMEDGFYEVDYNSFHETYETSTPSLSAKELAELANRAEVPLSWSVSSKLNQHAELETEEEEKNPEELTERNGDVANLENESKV
Source text: To identify changes in specific channel residue interactions with PIP2 upon ligand binding, the inventors carried out Principal Component Analysis (PCA) in the presence and absence of ML297 and GAT1508. The PCA analysis implicated changes in the slide (or interfacial) helix interactions with PIP2 upon ligand binding. Polar interactions could be formed between GIRK2^FD(Y76) and GIRK4^FD(Y71) with the P(4,5) of PIP2 when ML297 was bound to the same subunit (FIG. 39 top, FIG. 40). In contrast, when GAT1508 was bound this interaction was retained by GIRK2^FD but not GIRK4^FD (FIG. 39 bottom, FIG. 40). The corresponding GIRK1(S65) residue (FIG. 41, highlighted with vertical rectangle) could be serving the same role in stabilizing the phosphoinositol headgroup for interactions with non-ligand binding subunits. As polar residues, both Ser and Tyr could form H-bond interactions with PIP2. […]
Patch-clamp recording: Whole-cell currents were recorded with an Axopatch 200B amplifier (Molecular Devices) controlled via a USB-interface (National Instruments) using WinWCP software (University of Strathclyde). […] The barium-sensitive component of the current, observed when cells were perfused with the high-K^+ buffer, was analyzed and was determined by perfusing 5 mM BaCl2 in the high-K^+ buffer at the end of each experiment. […]

[1] = biological target: human ERG (hERG) channels (Homo sapiens, UniProt Q12809); design: expressed in transfected cells; host or cells: Xenopus oocytes; conditions: published; cited from earlier work
human ERG (hERG) channels, sequence (Q12809 whole entry): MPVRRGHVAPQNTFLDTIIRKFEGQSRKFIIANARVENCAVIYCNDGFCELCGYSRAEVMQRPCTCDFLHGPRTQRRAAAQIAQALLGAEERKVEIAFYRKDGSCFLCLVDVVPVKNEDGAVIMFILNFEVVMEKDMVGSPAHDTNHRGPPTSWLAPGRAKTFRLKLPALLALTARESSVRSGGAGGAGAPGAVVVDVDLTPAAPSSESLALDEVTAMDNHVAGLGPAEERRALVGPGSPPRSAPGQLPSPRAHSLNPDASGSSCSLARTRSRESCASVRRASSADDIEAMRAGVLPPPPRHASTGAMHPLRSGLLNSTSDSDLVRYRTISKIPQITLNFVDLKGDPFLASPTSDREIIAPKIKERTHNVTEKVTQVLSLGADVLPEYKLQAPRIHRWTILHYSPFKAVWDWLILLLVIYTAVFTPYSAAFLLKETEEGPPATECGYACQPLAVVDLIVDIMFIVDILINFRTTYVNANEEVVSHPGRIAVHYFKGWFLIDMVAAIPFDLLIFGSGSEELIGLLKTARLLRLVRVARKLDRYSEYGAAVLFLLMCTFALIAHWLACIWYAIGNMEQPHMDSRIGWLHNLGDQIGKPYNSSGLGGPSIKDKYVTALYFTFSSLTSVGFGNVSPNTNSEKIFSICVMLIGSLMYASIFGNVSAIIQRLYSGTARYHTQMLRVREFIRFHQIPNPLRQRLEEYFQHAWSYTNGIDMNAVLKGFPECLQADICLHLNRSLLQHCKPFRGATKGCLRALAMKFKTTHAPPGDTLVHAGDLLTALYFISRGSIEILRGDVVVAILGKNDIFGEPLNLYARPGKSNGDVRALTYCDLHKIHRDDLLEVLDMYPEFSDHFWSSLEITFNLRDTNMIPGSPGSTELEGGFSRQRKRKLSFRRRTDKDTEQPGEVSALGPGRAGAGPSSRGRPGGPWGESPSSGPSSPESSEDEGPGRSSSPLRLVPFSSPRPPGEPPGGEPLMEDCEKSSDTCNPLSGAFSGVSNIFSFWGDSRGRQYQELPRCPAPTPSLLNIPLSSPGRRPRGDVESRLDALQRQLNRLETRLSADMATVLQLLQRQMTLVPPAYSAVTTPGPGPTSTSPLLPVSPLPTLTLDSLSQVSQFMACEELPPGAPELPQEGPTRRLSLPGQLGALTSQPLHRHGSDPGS

| SMILES | protection of current from 5-ptaseOCRL (in words) (GIRK1-S65A with GIRK2) | IC50 [1] |
| --- | --- | --- |
| Cc1cc(NC(=O)Nc2ccc(Br)s2)n(-c2ccccc2)n1 [GAT1508, 1-(5-bromothiophen-2-yl)-3-(3-methyl-1-phenyl-1H-pyrazol-5-yl)urea] | not protected |  |
| Cc1cc(NC(=O)Nc2ccc(F)c(F)c2)n(-c2ccccc2)n1 [ML297, reference compound] |  | ~10 µM |
